Series [1] concerns THP-1. Nature of the series: Cytotoxicity against human THP1 cells after 48 hrs by MTT assay. Particulars: thp-1, 48 h. The class given is cell-based. In general terms: Tetrazolium assays rely on reduction of a dye to a coloured formazan, in cell work by metabolically active cells.
Series [2] in a line: Agonist activity at LXR in mouse RAW 264.7 assessed as increase in ABCG1mRNA level at 100 uM after 48 hrs by qPCR analysis relative to control. Type of series: functional.
Series [3] deals with T1, Peroxisome proliferator-activated receptor alpha (Homo sapiens) (UniProt Q07869).
T1 sequence (whole entry): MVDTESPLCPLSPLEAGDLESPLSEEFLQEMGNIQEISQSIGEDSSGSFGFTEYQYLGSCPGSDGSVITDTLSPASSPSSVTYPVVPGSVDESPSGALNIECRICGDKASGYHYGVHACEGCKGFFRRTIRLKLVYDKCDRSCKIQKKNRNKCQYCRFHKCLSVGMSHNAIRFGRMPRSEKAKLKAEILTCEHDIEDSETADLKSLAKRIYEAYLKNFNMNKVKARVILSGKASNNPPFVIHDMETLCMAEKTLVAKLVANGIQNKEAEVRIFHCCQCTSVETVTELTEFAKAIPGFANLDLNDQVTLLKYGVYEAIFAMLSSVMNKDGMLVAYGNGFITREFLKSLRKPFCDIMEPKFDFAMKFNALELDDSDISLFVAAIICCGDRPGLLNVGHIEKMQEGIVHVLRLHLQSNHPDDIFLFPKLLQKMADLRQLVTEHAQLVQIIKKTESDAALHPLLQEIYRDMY
Nature of the series: Transactivation of PPAR-alpha transfected in HEK293 cells at 50 to 100 uM after 24 hrs by luciferase reporter gene assay. The class given is cell-based. In general terms: A reporter such as luciferase makes a cellular process visible.

The test system of series [4] is RAW264.7. Briefly: Cytotoxicity against mouse RAW264.7 after 48 hrs by MTT assay. The class given is cell-based. The note with it: raw264.7, 48 h.
For series [5], the target named is T2, Liver X receptor (Homo sapiens) (UniProt Q13133+P55055). Nature of the series: Agonist activity at LXR in human THP1 cells assessed as induction of ABCG1 gene expression at 100 uM after 48 hrs by immunoblot analysis relative to control. Type of series: functional, cell-based. The note with it: THP-1.
Series [6] deals with HepG2. Nature of the series: Upregulation of ACOX gene expression in human HepG2 at 100 uM by qPCR analysis relative to control. The class given is functional, cell-based. For orientation: Quantitative PCR measures a nucleic acid by following its amplification.
Series [7] concerns the target T3, Oxysterols receptor LXR-alpha (Homo sapiens) (UniProt Q13133).
T3 sequence (whole entry): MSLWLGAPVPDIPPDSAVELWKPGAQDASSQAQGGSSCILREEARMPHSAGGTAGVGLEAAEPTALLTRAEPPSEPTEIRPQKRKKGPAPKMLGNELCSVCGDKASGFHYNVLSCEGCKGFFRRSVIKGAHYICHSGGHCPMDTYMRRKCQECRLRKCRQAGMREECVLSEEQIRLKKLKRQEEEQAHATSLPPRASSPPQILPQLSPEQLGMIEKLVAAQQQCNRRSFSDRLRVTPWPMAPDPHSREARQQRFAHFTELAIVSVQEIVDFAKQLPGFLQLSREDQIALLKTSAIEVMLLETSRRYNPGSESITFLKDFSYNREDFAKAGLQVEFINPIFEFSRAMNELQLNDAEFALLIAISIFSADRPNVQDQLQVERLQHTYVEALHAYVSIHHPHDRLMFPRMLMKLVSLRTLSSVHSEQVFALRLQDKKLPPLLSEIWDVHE
Briefly: Agonist activity at LXR-alpha in human HepG2 cells assessed as reduction in cellular cholesterol level. Type of series: functional, cell-based.

The target of series [8] is T4, Oxysterols receptor LXR-alpha (Homo sapiens, UniProt Q13133).
T4 sequence (Q13133 whole entry): T3 sequence (whole entry)
Nature of the series: Transactivation of human LXR-alpha transfected in HEK293 cells after 24 hrs by luciferase reporter gene assay. Type of series: cell-based.

Series [9] has as its target T2, Liver X receptor (Homo sapiens). Briefly: Agonist activity at LXR in human Caco2 cells assessed as increase in ABCG5 mRNA level at 100 uM after 48 hrs by qPCR analysis relative to control. The note with it: Caco-2. Type of series: functional, cell-based.
The target is the same in series [10]. Nature of the series: Agonist activity at LXR in human THP1 monocytes assessed as increase in ABCG1 mRNA level at 100 uM after 48 hrs by qPCR analysis relative to control. Type of series: functional, cell-based.
For series [11], the target named is T5, Oxysterols receptor LXR-beta (Homo sapiens, UniProt P55055).
T5 sequence (P55055 whole entry): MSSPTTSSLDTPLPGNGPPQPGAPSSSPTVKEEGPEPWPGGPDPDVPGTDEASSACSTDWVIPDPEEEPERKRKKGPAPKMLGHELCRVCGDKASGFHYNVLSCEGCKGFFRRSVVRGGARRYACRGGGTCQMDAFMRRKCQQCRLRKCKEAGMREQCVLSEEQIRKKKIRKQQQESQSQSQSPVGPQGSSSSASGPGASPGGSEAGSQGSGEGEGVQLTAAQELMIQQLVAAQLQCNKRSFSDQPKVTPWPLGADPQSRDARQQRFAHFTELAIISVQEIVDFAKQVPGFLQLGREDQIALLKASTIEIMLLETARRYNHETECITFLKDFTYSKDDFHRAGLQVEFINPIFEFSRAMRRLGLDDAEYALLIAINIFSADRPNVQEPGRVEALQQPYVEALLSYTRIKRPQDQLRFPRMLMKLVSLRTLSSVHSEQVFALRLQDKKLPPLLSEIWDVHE
Nature of the series: Transactivation of human LXR-beta transfected in HEK293 cells after 24 hrs by luciferase reporter gene assay. The class given is cell-based.

In series [12] the target is T6, Oxysterols receptor LXR-beta (Homo sapiens) (UniProt P55055).
T6 sequence (whole entry): T5 sequence (P55055 whole entry)
Briefly: Transactivation of human LXR-beta transfected in HEK293 cells at 100 uM after 24 hrs by luciferase reporter gene assay. Type of series: cell-based.

The target in series [13] is T3, Oxysterols receptor LXR-alpha (Homo sapiens). Nature of the series: Agonist activity at LXR-alpha in human THP1 cells assessed as reduced cellular cholesterol concentration. Type of series: functional, cell-based. The note with it: THP-1.
Series [14] concerns HepG2. Nature of the series: Reduction in SCD-1 gene expression in human HepG2 cells at 50 uM by qPCR analysis relative to control. Details: scale not given: the % may be the effect or the level left. Type of series: functional.
Series [15] can be described thus: Agonist activity at LXR in mouse RAW 264.7 assessed as induction of ABCA1 mRNA expression at 100 uM after 48 hrs by qPCR analysis relative to control. The class given is functional.
In series [16] the target is T2, Liver X receptor (Homo sapiens). Nature of the series: Agonist activity at LXR in human Caco2 cells assessed as decrease in NPC1L1 mRNA level at 100 uM after 48 hrs by qPCR analysis relative to control. Type of series: functional, cell-based. Further details: scale not given: the % may be the effect or the level left. Particulars: Caco-2.
In series [17] the target is T7, Oxysterols receptor LXR-alpha (Mus musculus) (UniProt Q9Z0Y9).
T7 sequence (whole entry): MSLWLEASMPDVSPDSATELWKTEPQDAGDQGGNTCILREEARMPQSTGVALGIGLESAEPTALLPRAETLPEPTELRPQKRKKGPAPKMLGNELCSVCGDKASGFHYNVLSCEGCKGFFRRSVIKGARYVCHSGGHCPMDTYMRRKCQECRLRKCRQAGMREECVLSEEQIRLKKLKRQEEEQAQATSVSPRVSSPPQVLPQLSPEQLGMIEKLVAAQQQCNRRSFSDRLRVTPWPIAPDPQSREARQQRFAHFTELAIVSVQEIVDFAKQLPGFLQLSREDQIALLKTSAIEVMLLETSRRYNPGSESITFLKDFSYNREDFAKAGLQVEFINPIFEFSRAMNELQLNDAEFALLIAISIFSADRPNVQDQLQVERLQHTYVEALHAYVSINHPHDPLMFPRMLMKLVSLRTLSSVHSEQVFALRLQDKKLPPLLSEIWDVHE
Briefly: Agonist activity at LXR-alpha in mouse RAW264.7 cells assessed as reduction in cellular cholesterol level. The class given is functional, cell-based.

The source made the active and inactive calls. No cut-off for these calls is given here.

Consider 1 compound from ChEMBL document CHEMBL2203118, “Ethyl 2,4,6-trihydroxybenzoate is an agonistic ligand for liver X receptor that induces cholesterol efflux from macrophages without affecting lipid accumulation in HepG2 cells” (Bioorg Med Chem Lett, 2012).

As for `CCOC(=O)c1c(O)cc(O)cc1O`, the Activity entry in series [1] was “Non-toxic”; in [4], “Non-toxic”; in [7], “Dose-dependent effect”; in series [12], 55%; in series [13], “Dose-dependent effect”; in series [14], 47.6%. In addition, the Activity was 33.2% in [16] and “Dose-dependent effect” in series [17]. Besides, the “fold change (FC)” value is 2.9 in series [2], 12.6 in [9], 5.2 in series [10] and 2.1 in [15]. Further, the result in series [3] was inactive. The result in series [5] and in series [6] was Active. Also, the EC50 in series [8] was 80.8 µM; in [11] it was 37.8 µM.

By EC50 is commonly meant the concentration needed to bring the measured effect to its halfway point.
